Measured values reported in ChEMBL document CHEMBL1128029, “Synthesis and biological properties of a new series of anti-MRSA -lactams; 2-(thiazol-2-ylthio)carbapenems” (Bioorg Med Chem Lett, 1994).
≈ marks a conversion by molar mass, not a printed value.

Assays:
[1] = test system: Staphylococcus aureus; assay: In vitro minimum inhibitory concentration against Staphylococcus aureus MS9408; type: functional
[2] = test system: Staphylococcus epidermidis; assay: In vitro minimum inhibitory concentration against Staphylococcus epidermidis IAM1296; type: functional
[3] = test system: Klebsiella pneumoniae; assay: In vitro minimum inhibitory concentration against Klebsiella pneumoniae ATCC 10031; type: functional
[4] = test system: Staphylococcus aureus; assay: In vitro minimum inhibitory concentration against Staphylococcus aureus 209p; type: functional
[5] = test system: Escherichia coli; assay: In vitro minimum inhibitory concentration against Escherichia coli NIHJ JC-2; type: functional
[6] = test system: Staphylococcus aureus; assay: In vitro minimum inhibitory concentration against Staphylococcus aureus SP-7928; type: functional
[7] = biological target: Albumin (Homo sapiens, UniProt P02768); assay: Binding affinity towards Human Serum albumin.
Sequence of Albumin (P02768 whole entry): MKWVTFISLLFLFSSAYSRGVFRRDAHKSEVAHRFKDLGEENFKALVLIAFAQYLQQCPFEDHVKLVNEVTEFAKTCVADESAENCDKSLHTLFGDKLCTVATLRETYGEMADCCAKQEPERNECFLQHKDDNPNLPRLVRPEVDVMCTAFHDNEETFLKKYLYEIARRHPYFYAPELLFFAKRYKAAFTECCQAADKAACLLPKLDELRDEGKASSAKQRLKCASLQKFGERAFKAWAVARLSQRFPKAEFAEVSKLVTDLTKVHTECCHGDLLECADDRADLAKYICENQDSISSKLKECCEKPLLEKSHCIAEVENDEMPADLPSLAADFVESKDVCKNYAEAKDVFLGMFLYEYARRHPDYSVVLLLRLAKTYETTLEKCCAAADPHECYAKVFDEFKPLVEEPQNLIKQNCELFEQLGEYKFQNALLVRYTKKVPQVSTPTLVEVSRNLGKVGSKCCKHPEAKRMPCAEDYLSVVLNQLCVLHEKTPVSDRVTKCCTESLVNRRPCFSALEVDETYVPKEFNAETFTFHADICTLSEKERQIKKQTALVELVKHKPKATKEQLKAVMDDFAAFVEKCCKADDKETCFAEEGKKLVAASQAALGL

[8] = biological target: T1, Dipeptidase 1 (Sus scrofa) (UniProt P22412); assay: Time of enzyme-catalyzed hydrolysis from 500 uM to 400 uM in the presence of purified renal DHP-1 of swine
T1 sequence (whole entry): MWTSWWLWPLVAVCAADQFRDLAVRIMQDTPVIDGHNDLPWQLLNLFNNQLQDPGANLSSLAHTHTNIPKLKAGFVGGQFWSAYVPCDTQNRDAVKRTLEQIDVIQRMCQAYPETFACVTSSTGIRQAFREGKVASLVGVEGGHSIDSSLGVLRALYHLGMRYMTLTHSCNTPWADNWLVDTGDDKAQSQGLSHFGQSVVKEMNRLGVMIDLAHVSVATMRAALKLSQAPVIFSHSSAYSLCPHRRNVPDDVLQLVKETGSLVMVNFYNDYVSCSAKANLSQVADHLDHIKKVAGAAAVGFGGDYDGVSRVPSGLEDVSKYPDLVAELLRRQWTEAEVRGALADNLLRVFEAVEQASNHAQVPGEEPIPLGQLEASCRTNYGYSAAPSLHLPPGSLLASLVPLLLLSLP

| SMILES | MIC [1] [µg/mL] | MIC [2] [µg/mL] | MIC [3] [µg/mL] | MIC [4] [µg/mL] | MIC [5] [µg/mL] | MIC [6] [µg/mL] | Binding [7] [%] | TIME [8] [h] |
| --- | --- | --- | --- | --- | --- | --- | --- | --- |
| C[C@@H](O)[C@H]1C(=O)N2C(C(=O)O)=C(Sc3nc4ccccc4s3)[C@H](C)[C@H]12 | 0.78 (≈ 2.07 µM) | 0.2 (≈ 0.531 µM) | 0.78 (≈ 2.07 µM) | 0.025 (≈ 0.0664 µM) | 25 (≈ 66.4 µM) | 3.13 (≈ 8.31 µM) | > 94 | – |
| C[C@@H](O)[C@H]1C(=O)N2C(C(=O)O)=C(Sc3nc(-c4ccc(C(N)=O)cc4)cs3)[C@H](C)[C@H]12 | 0.2 (≈ 0.449 µM) | 0.025 (≈ 0.0561 µM) | 0.1 (≈ 0.224 µM) | < 0.006 | 6.25 (≈ 14 µM) | 1.56 (≈ 3.5 µM) | 99 | 0.2 |
| C[C@@H](O)[C@H]1C(=O)N2C(C(=O)[O-])=C(Sc3nc(-c4ccc[n+](CC(N)=O)c4)cs3)[C@H](C)[C@H]12 | 0.2 (≈ 0.434 µM) | 0.025 (≈ 0.0543 µM) | 0.05 (≈ 0.109 µM) | < 0.006 | 0.39 (≈ 0.847 µM) | 1.56 (≈ 3.39 µM) | 24 | 0.283 |
| Cc1csc(SC2=C(C(=O)O)N3C(=O)[C@H]([C@@H](C)O)[C@H]3[C@H]2C)n1 | 0.39 (≈ 1.15 µM) | 0.05 (≈ 0.147 µM) | 0.05 (≈ 0.147 µM) | 0.025 (≈ 0.0734 µM) | 3.13 (≈ 9.19 µM) | 3.13 (≈ 9.19 µM) | 93 | 0.217 |
| C[C@@H](O)[C@H]1C(=O)N2C(C(=O)O)=C(SCCN=CN)C[C@H]12 [IMIPENEM ANHYDROUS] | – | – | – | – | – | – | < 10 | – |
| C[C@@H](O)[C@H]1C(=O)N2C(C(=O)[O-])=C(Sc3nc(-c4cc[n+](CC(N)=O)cc4)cs3)[C@H](C)[C@H]12 | 0.2 (≈ 0.434 µM) | 0.05 (≈ 0.109 µM) | 0.025 (≈ 0.0543 µM) | < 0.006 | 0.2 (≈ 0.434 µM) | 1.56 (≈ 3.39 µM) | 15 | 0.35 |
| Cc1ccc(-c2csc(SC3=C(C(=O)O)N4C(=O)[C@H]([C@@H](C)O)[C@H]4[C@H]3C)n2)cc1 | 0.2 (≈ 0.48 µM) | 0.025 (≈ 0.06 µM) | 0.39 (≈ 0.936 µM) | < 0.006 | 12.5 (≈ 30 µM) | 3.13 (≈ 7.51 µM) | > 94 | 0.153 |
| C[C@@H](O)[C@H]1C(=O)N2C(C(=O)O)=C(Sc3ncc(-c4ccccc4)s3)[C@H](C)[C@H]12 | 0.39 (≈ 0.969 µM) | 0.39 (≈ 0.969 µM) | 0.39 (≈ 0.969 µM) | < 0.006 | 25 (≈ 62.1 µM) | 12.5 (≈ 31.1 µM) | > 94 | 0.25 |
| C[C@@H](O)[C@H]1C(=O)N2C(C(=O)[O-])=C(Sc3nc(-c4ccc5cc[n+](C)cc5c4)cs3)[C@H](C)[C@H]12 | 0.05 (≈ 0.107 µM) | 0.013 (≈ 0.0278 µM) | 0.05 (≈ 0.107 µM) | < 0.006 | 3.13 (≈ 6.69 µM) | 0.78 (≈ 1.67 µM) | 59 | 0.2 |
| C[C@@H](O)[C@H]1C(=O)N2C(C(=O)O)=C(Sc3nc(-c4ccc5ccncc5c4)cs3)[C@H](C)[C@H]12 | 0.1 (≈ 0.22 µM) | 0.025 (≈ 0.0551 µM) | 0.2 (≈ 0.441 µM) | < 0.006 | 12.5 (≈ 27.6 µM) | 0.78 (≈ 1.72 µM) | 99 | 0.162 |
| C[C@@H](O)[C@H]1C(=O)N2C(C(=O)[O-])=C(Sc3nc(-c4cc[n+](C)cc4)cs3)[C@H](C)[C@H]12 | 0.1 (≈ 0.24 µM) | 0.025 (≈ 0.0599 µM) | 0.025 (≈ 0.0599 µM) | < 0.006 | 0.39 (≈ 0.934 µM) | 1.56 (≈ 3.74 µM) | 12 | 0.383 |
| CCCc1csc(SC2=C(C(=O)O)N3C(=O)[C@H]([C@@H](C)O)[C@H]3[C@H]2C)n1 | 0.39 (≈ 1.06 µM) | 0.05 (≈ 0.136 µM) | 0.2 (≈ 0.543 µM) | 0.025 (≈ 0.0678 µM) | 12.5 (≈ 33.9 µM) | 3.13 (≈ 8.49 µM) | 96 | 0.2 |
| C[C@@H](O)[C@H]1C(=O)N2C(C(=O)O)=C(Sc3nc(-c4ccc(Cl)cc4)cs3)[C@H](C)[C@H]12 | 0.2 (≈ 0.458 µM) | 0.025 (≈ 0.0572 µM) | 0.2 (≈ 0.458 µM) | < 0.013 | 12.5 (≈ 28.6 µM) | 1.56 (≈ 3.57 µM) | > 94 | 0.165 |
| Cc1nc(SC2=C(C(=O)O)N3C(=O)[C@H]([C@@H](C)O)[C@H]3[C@H]2C)sc1C | 0.78 (≈ 2.2 µM) | 0.1 (≈ 0.282 µM) | 0.2 (≈ 0.564 µM) | 0.025 (≈ 0.0705 µM) | 3.13 (≈ 8.83 µM) | 6.25 (≈ 17.6 µM) | > 75 | 0.383 |
| C[C@@H](O)[C@H]1C(=O)N2C(C(=O)O)=C(Sc3nc(-c4ccc(N)cc4)cs3)[C@H](C)[C@H]12 | 0.2 (≈ 0.479 µM) | 0.025 (≈ 0.0599 µM) | 0.05 (≈ 0.12 µM) | < 0.013 | 6.25 (≈ 15 µM) | 1.56 (≈ 3.74 µM) | 98 | 0.3 |
| C[C@@H](O)[C@H]1C(=O)N2C(C(=O)O)=C(Sc3nc(-c4ccccc4)cs3)[C@H](C)[C@H]12 | 0.1 (≈ 0.248 µM) | 0.025 (≈ 0.0621 µM) | 0.1 (≈ 0.248 µM) | < 0.013 | 6.25 (≈ 15.5 µM) | 0.78 (≈ 1.94 µM) | > 94 | 0.163 |
| C[C@@H](O)[C@H]1C(=O)N2C(C(=O)O)=C(Sc3nc(-c4ccc(CN)cc4)cs3)[C@H](C)[C@H]12 | 0.2 (≈ 0.463 µM) | 0.025 (≈ 0.0579 µM) | 0.2 (≈ 0.463 µM) | < 0.006 | 1.56 (≈ 3.61 µM) | 1.56 (≈ 3.61 µM) | 87 | – |
| C[C@@H](O)[C@H]1C(=O)N2C(C(=O)O)=C(Sc3nccs3)[C@H](C)[C@H]12 | 0.78 (≈ 2.39 µM) | 0.1 (≈ 0.306 µM) | 0.05 (≈ 0.153 µM) | 0.025 (≈ 0.0766 µM) | 0.78 (≈ 2.39 µM) | 12.5 (≈ 38.3 µM) | 69 | 0.25 |
| C[C@@H](O)[C@H]1C(=O)N2C(C(=O)[O-])=C(Sc3nc(-c4ccc[n+](C)c4)cs3)[C@H](C)[C@H]12 | 0.2 (≈ 0.479 µM) | 0.025 (≈ 0.0599 µM) | 0.05 (≈ 0.12 µM) | < 0.013 | 0.39 (≈ 0.934 µM) | 1.56 (≈ 3.74 µM) | 7.8 | 0.467 |
| C[C@@H](O)[C@H]1C(=O)N2C(C(=O)O)=C(SCCNC=N)C[C@H]12 [IMIPENEM ANHYDROUS] | 0.78 (≈ 2.61 µM) | 0.2 (≈ 0.668 µM) | 0.1 (≈ 0.334 µM) | 0.013 (≈ 0.0434 µM) | 0.1 (≈ 0.334 µM) | 50 (≈ 167 µM) | – | 0.2 |
| C[C@@H](O)[C@H]1C(=O)N2C(C(=O)O)=C(Sc3nc(-c4cccnc4)cs3)[C@H](C)[C@H]12 | 0.2 (≈ 0.496 µM) | 0.025 (≈ 0.062 µM) | 0.05 (≈ 0.124 µM) | < 0.013 | 6.25 (≈ 15.5 µM) | 1.56 (≈ 3.87 µM) | 97 | 0.0533 |
| C[C@@H](O)[C@H]1C(=O)N2C(C(=O)O)=C(Sc3nc(-c4ccncc4)cs3)[C@H](C)[C@H]12 | 0.2 (≈ 0.496 µM) | 0.05 (≈ 0.124 µM) | 0.2 (≈ 0.496 µM) | < 0.013 | 6.25 (≈ 15.5 µM) | 3.13 (≈ 7.76 µM) | 97 | 0.267 |
